Source: US9044482B2, “Use of aminoindane compounds in treating overactive bladder and interstitial cystitis” (priority 2012, dated 2015)

Key:
[1] = system: bladder function; test: In vivo assay of bladder function (cystometry) in conscious rats; set-up: species or system rat
Experimental: This study was performed in order to assess the effects of compounds on various aspects of bladder function in conscious rats. See, Clouse, 2012, Urology 79(6):1410e1-1410e6. Rats were prepared with indwelling polyethylene catheters positioned into the bladder through the dome and exteriorized at the scapular level. […] pressure was monitored by connecting the catheter to a commercial strain gauge via a T-connector that permitted the infusion of solutions and drugs. Cystometric recording commenced 48 hours after catheter implantation. Animals were continuously administered saline, with or without test compounds, through the catheter, at a rate of 2 mL/hr. Urine was collected and weighed using a force transducer and intravesical pressure was continually monitored in order to assess micturition amplitude, frequency and volume and bladder capacity. Saline perfusions were supplemented with test compounds in order to determine the effects on each of the above bladder function parameters.

[2] = system: noxious urinary bladder distention; details: in vivo; cited from earlier work
[3] = system: isolated detrusor bladder muscle; test: In vitro assay on isolated bladder detrusor muscle strips, EFS-induced contractions in organ bath; set-up: species or system guinea pig; details: for IC50, inhibition of EFS-induced detrusor contractions: cumulative concentration-response, isolated guinea pig detrusor strips; for steady-state inhibition of EFS-induced contractile response: drug 0.01% in organ bath
Experimental: Whole bladders were removed from euthanized female guinea pigs, longitudinal detrusor muscle strips were dissected from each bladder and were mounted in a conventional glass organ bath and perfused continuously with an oxygenated Krebs solution. Detrusor contractions were elicited in response to electrical field stimulation (EFS) and were recorded using isometric force transducers linked to a data acquisition software system. After an equilibration period, tissue strips were subjected to regular EFS for a period of 30 minutes or until stable baseline contractions were attained.

[4] = system: micturition pattern; details: animal model of IC and OAB; cited from earlier work
[5] = infusion of 0.3% solution into bladder, conscious rats

In the case of `Cc1ccccc1N(CC[C@H]1CCCC[N+]1(C)C)C1Cc2ccccc2C1.[I-]` [(R)-1,1-dimethyl-2-[2-((indan-2-yl)(2-methylphenyl)amino)ethyl]piperidinium iodide], the “duration of action on micturition frequency” value ([1]; compared to lidocaine) is reported as “longer duration of action”.
For `Cc1cccc(C)c1OCC(C)N` (stereo not shown) [mexilitine], the “painful sensation of noxious urinary bladder distention” value [2] is listed as “prevents the painful sensation”.
With `Cc1ccccc1N(CC[C@H]1CCCC[N+]1(C)C)C1Cc2ccccc2C1.[Br-]` [example 43, (R)-1,1-dimethyl-2-[2-((indan-2-yl)(2-methylphenyl)amino)ethyl]piperidinium iodide] the “time for which steady state inhibition was maintained after drug had been eliminated from the organ bath” value ([3]; 0.01%) was “at least 2 hours”, the “IC50, inhibition of EFS-induced detrusor contractions” value [3] was roughly 0.0001% and the “steady-state inhibition of EFS-induced contractile response” value [3] was 30-45%. The “potency relative to lidocaine alone” value ([3]; from IC50 for inhibition of EFS-induced detrusor contractions) was “about 10 fold”, the “period of effect on bladder capacity and micturition volume after administration” value ([1]; infusion of 0.3% solution) was 2 h and the bladder capacity [1, 5] was “increase in bladder capacity”. The micturition volume [1, 5] was “decrease in micturition volume”.
With `CCN(CC)CC(=O)Nc1c(C)cccc1C` [lidocaine, reference compound] the “recovery of EFS-induced contractile response after washout” value ([3]; 0.01%, by 2 hours after washing out) was “around 80 % of predrug levels”, the “IC50, inhibition of EFS-induced detrusor contractions” value [3] was roughly 0.001% and the “steady-state inhibition of EFS-induced contractile response” value [3] was roughly 40%. For the same molecule, the “micturition pattern as determined by cystometry” value [4] was “normalizes the micturition pattern”.
